Source: ChEMBL document CHEMBL4017456, “The discovery of tetrahydropyridine analogs as hNav1.7 selective inhibitors for analgesia” (Bioorg Med Chem Lett, 2017)
Each block holds one compound with its values, some of them ahead of it.

Key:
[1] = Ratio of drug level in brain to plasma in Sprague-Dawley rat at 0.5 mg/kg, iv or 2 mg/kg, po by LC-MS/MS analysis; format: ADME, organism-based; settings: read-out: BPR
in vivo [2] = settings: Sprague-Dawley, rat, plasma, iv, 0.5 mg/kg
in vivo [3] = settings: Sprague-Dawley, rat, plasma, iv, 0.5 mg/kg; remark: listed apart in the source
in vivo [4] = settings: Sprague-Dawley, rat, iv, 0.5 mg/kg
in vivo [5] = settings: Sprague-Dawley, rat, iv, 0.5 mg/kg; remark: listed apart in the source
in vivo [6] = settings: Sprague-Dawley, rat, plasma, po, 2 mg/kg
in vivo [7] = settings: Sprague-Dawley, rat, plasma, po, 2 mg/kg; remark: listed apart in the source
in vivo [8] = settings: Sprague-Dawley, rat, plasma, po, 2 mg/kg; remark: listed apart in the source
Plasma [9] = test: Plasma concentration in Sprague-Dawley rat at 100 mg/kg administered via oral gavage by LC-MS/MS method; format: ADME, organism-based; settings: in vivo
Plasma [10] = test: Free plasma concentration in Sprague-Dawley rat at 100 mg/kg administered via oral gavage by LC-MS/MS method; format: ADME, organism-based; settings: in vivo
[11] = Half life in Sprague-Dawley rat plasma at 1 mg/kg, iv administered as single bolus dose by LC-MS/MS analysis; format: ADME, organism-based
[12] = Volume of distribution at steady state in Sprague-Dawley rat plasma at 1 mg/kg, iv administered as single bolus dose by LC-MS/MS analysis; format: ADME, organism-based; settings: read-out: Vdss
[13] = Clearance in Sprague-Dawley rat at 1 mg/kg, iv administered as single bolus dose by LC-MS/MS analysis; format: ADME, organism-based; settings: in vivo
[14] = AUC (0 to last) in Sprague-Dawley rat plasma at 1 mg/kg, iv administered as single bolus dose by LC-MS/MS analysis; format: ADME, organism-based; design: dose 1 mg/kg, route intravenous, time 0 - last
[15] = Ratio of drug level in brain to plasma in Sprague-Dawley rat at 1 mg/kg, iv or 10 mg/kg, po by LC-MS/MS analysis; format: ADME, organism-based; settings: read-out: BPR
in vivo [16] = settings: Sprague-Dawley, rat, plasma, po, 10 mg/kg
in vivo [17] = settings: Sprague-Dawley, rat, plasma, po, 10 mg/kg; remark: listed apart in the source
in vivo [18] = settings: Sprague-Dawley, rat, plasma, po, 10 mg/kg; remark: listed apart in the source
in vitro = settings: human, Caco-2

Kp [1]: 0.26
half-life (in vivo [2]): 3.6 h
Vd (in vivo [3]): 8.9 L/kg
clearance (in vivo [4]): 39.2 mL/min/kg
AUC(0-t) (in vivo [5]): 0.34 µM·h
Tmax (in vivo [6]): 1.7 h
AUC(0-t) (in vivo [7]): 0.25 µM·h
bioavailability (in vivo [8]): 18.4%
Compound: N[C@@H]1CCC=C(c2ccc(F)cc2)[C@H]1COc1cc(F)c(S(=O)(=O)Nc2cscn2)cc1Cl

concentration (Plasma [9]): 82.1 µM
Cp(f) (Plasma [10]): 0.41 µM
Compound: O=S(=O)(Nc1cscn1)c1cc(Cl)c(OC[C@H]2NCCC=C2c2ccc(F)cc2)cc1F

half-life [11]: 2.7 h
Vd [12]: 0.6 L/kg
clearance [13]: 4.5 mL/min/kg
AUC(0-t) [14]: 3.56 µM·h
Kp [15]: 0.017
Tmax (in vivo [16]): 3.8 h
AUC(0-t) (in vivo [17]): 41.8 µM·h
bioavailability (in vivo [18]): 64.8%
Papp A→B (in vitro): 3.2 ×10⁻⁶ cm/s
Compound: O=S(=O)(Nc1cscn1)c1cc(Cl)c(OCC2NCCC=C2c2ccc(F)cc2)cc1F (stereo unspecified)

concentration (Plasma [9]): 55.8 µM
Cp(f) (Plasma [10]): 0.279 µM
Compound: Nc1[nH]ncc1-c1cc(Cl)ccc1Oc1cc(F)c(S(=O)(=O)Nc2cscn2)cc1Cl [PF-05089771]
